Measurements: patent publication US8912181B2 (Taiho Pharmaceutical Co., Ltd., priority 2011, dated 2014)

Key:
SK-BR-3 cells = experiment: Determination of cell growth inhibition (crystal violet staining method); format: cell-based; settings: Homo sapiens; breast cancer cells SK-BR-3, 72 hours culture with test substance
Description: Cell growth was assayed by a crystal violet staining method. SK-BR-3 cells (HTB-30) purchased from American Type Culture Collection were inoculated at a concentration of 5,000 cells/well to a 96-well plate (#353075, BD Biosciences). After culture at 37° C. for 24 hours in a 5% CO2 incubator, each test substance was added thereto, and the cells were further cultured for 72 hours. A 25% glutaraldehyde solution (#17025-25, Nacalai Tesque, Inc.) was added thereto at a concentration of 20 μL/well per 200 μL of the medium, and the plate was incubated at room temperature for 20 minutes to fix the cells. The plate was washed with water and dried. Then, a solution containing 0.05% crystal violet (#038-17792, Wako Pure Chemical Industries, Ltd.) and 20% methanol was added thereto at a concentration of 100 μL/well, and the plate was incubated at room temperature for 20 minutes to stain the cells. The plate was washed with water and dried. A mixed solution of 0.05 M NaH2PO4 and ethanol (mixed in equal amounts) was added thereto at a concentration of 100 μL/well. Absorbance was measured at 540 nm using a microplate reader (MTP-450, Corona Electric Co., Ltd.) and used as an index for the number of cells per well. Percent inhibition (%) of cell growth by each compound of the present invention was determined according to the formula shown below with the absorbance of no drug addition group as a control. […] Percent inhibition (%)=(C−T)/C×100, wherein T: Absorbance of well with test substance addition C: Absorbance of well without test substance addition.

[1] = target: human HSP90 alpha protein (N-terminal, amino acids 2 to 236) (Homo sapiens (Human), UniProt P07900); experiment: Determination of HSP90-binding activity (AlphaScreen competitive assay with biotinylated geldanamycin); settings: inhibition of binding of biotinylated geldanamycin to purified HSP90 N-terminal protein, read-out: HSP-binding activity IC50
Description: First, a purified HSP90 solution was prepared as follows: a human HSP90 alpha gene (NCBI Reference Sequence accession no. NM-005348) region corresponding to amino acids 2 to 236 of human HSP90 alpha protein (NCBI Reference Sequence accession no. NP-005339; full length: 732 amino acids) was inserted to pET-19b (Novagen; Merck KGaA) to construct a plasmid pET-HS[…] for expression of the HSP90 N-terminal protein having a His-tag at the N-terminus. E. coli (BL21(DE3), Stratagene Corp.) was transformed with pET-HS[…] and then cultured at 37° C. for 4 hours in the presence of 0.5 mM isopropyl-beta-D-thiogalactopyranoside (Sigma-Aldrich Corp.). The collected E. coli was suspended in a lysis buffer (50 mM Tris-HCl (pH 7.5), 200 mM NaCl) and sonicated. The sonicated cell solution was centrifuged (40,000×g, 20 minutes), and the supernatant was used as a crude extract. This crude extract was fractionated using Ni Sepharose High Performance (GE Healthcare Japan Corp.) chromatography and HiLoad 26/60 Superdex 75 pg (GE Healthcare Japan Corp.). Then, a fraction of HSP90 protein concentrates was prepared in a solution containing 50 mM Tris-HCl (pH 7.5) and 20% glycerol as a purified HSP90 solution. The purified HSP90 solution was divided and stored at -80° C. until use. HSP90-binding activity was determined by an AlphaScreen competitive assay system. […] After reaction at room temperature for 2 hours, biotinylated geldanamycin was added thereto at a concentration of 40 nM/well and further reacted for 1 hour. Detection mix (20 mM HEPES-KOH (pH 7.5), 0.5% BSA, 0.04 mg/mL Nickel Chelate Acceptor beads, 0.04 mg/mL Streptavidin-coated Donor beads) (#6760619C, PerkinElmer, Inc.) was added to each well in an amount equal to the amount of the reaction solution and reacted at room temperature for 1 hour in the dark. Then, fluorescence intensity was measured using Multilabel Plate Reader EnVision (PerkinElmer, Inc.). Percent inhibition (%) of the binding of biotinylated geldanamycin by each compound of the present invention was determined according to the formula shown below with the fluorescence signal of no test substance addition group as a control. […] Percent inhibition (%)=(C-T)/C×100, wherein T: Signal of well with test substance addition C: Signal of well without test substance addition.

SMILES	IC50 (SK-BR-3 cells)	IC50 [1]
CC(C)(C)Nc1cc(-c2cc(C(F)(F)F)nc3c(-n4cnc(-c5ccccc5)c4)cccc23)ccc1C(N)=O [Example 107, 2-(Tert-butylamino)-4-(8-(4-phenyl-1H-imidazol-1-yl)-2-(trifluoromethyl)quinolin-4-yl)benzamide]	0.24 µM	–
Cc1cc2c(-n3cnc(-c4cnn(C)c4)c3)cccc2c(-c2ccc(C(N)=O)cc2C)n1 [Example 95, 3-Methyl-4-(3-methyl-5-(4-(1-methyl-1H-pyrazol-4-yl)-1H-imidazol-1-yl)isoquinolin-1-yl)benzamide]	1.02 µM	0.4 µM
CC(C)(C)Nc1cc(-c2cc(C(F)(F)F)nc3c(-n4cnc(-c5cccnc5)c4)cccc23)ccc1C(N)=O [Example 76, 2-(Tert-butylamino)-4-(8-(4-(pyridin-3-yl)-1H-imidazol-1-yl)-2-(trifluoromethyl)quinolin-4-yl)benzamide]	0.04 µM	0.2 µM
NC(=O)c1ccc(-c2nccc3c(-c4cnc5nccnc5c4)cccc23)cc1NC1CCC(O)CC1 (centres unmarked) [Example 13, 2-(4-Hydroxycyclohexylamino)-4-(5-(pyrido[2,3-b]pyrazin-7-yl)isoquinolin-1-yl)benzamide]	0.58 µM	0.45 µM
CCNc1cc(-c2nc(C(F)(F)F)nc3c(-n4cnc(-c5cnn(C)c5)c4)cccc23)ccc1C(N)=O [Example 80, 2-(Ethylamino)-4-(8-(4-(1-methyl-1H-pyrazol-4-yl)-1H-imidazol-1-yl)-2-(trifluoromethyl)quinazolin-4-yl)benzamide]	0.02 µM	0.14 µM
NC(=O)c1ccc(-c2nccc3c(-n4cnc(-c5ccncc5)c4)cccc23)cc1NC1CCC(O)CC1 (centres unmarked) [Example 25, 2-(4-Hydroxycyclohexylamino)-4-(5-(4-(pyridin-4-yl)-1H-imidazol-1-yl)isoquinolin-1-yl)benzamide]	0.11 µM	0.13 µM
CCc1cc(-c2ccc(C(N)=O)c(N)c2)c2cccc(-n3cnc(-c4ccc(C)nc4)c3)c2n1 [Example 124, 2-Amino-4-(2-ethyl-8-(4-(6-methylpyridin-3-yl)-1H-imidazol-1-yl)quinolin-4-yl)benzamide]	0.02 µM	0.13 µM
Cc1ccc(-c2cn(-c3cccc4c(-c5ccc(C(N)=O)c(N)c5)cc(C(F)(F)F)nc34)cn2)cn1 [Example 118, 2-Amino-4-(8-(4-(6-methylpyridin-3-yl)-1H-imidazol-1-yl)-2-(trifluoromethyl)quinolin-4-yl)benzamide]	0.06 µM	0.25 µM
CC(C)OCCNc1cc(-c2cc(C(F)(F)F)nc3c(-c4cnc5ccccc5c4)cccc23)ccc1C(N)=O [Example 111, 2-(2-Isopropoxyethylamino)-4-(2′-(trifluoromethyl)-3,8′-biquinolin-4′-yl)benzamide]	0.06 µM	0.84 µM
Cn1cc(-c2cn(-c3cccc4c(-c5ccc(C(N)=O)c(NCCc6ccccn6)c5)nccc34)cn2)cn1 [Example 60, 4-(5-(4-(1-Methyl-1H-pyrazol-4-yl)-1H-imidazol-1-yl)isoquinolin-1-yl)-2-(2-(pyridin-2-yl)ethylamino)benzamide]	0.15 µM	0.17 µM
CCNc1cc(-c2cc(C(F)(F)F)nc3c(-n4cnc(-c5cnn(C(F)F)c5)c4)cccc23)ccc1C(N)=O [Example 91, 4-(8-(4-(1-Difluoromethyl-1H-pyrazol-4-yl)-1H-imidazol-1-yl)-2-(trifluoromethyl)quinolin-4-yl)-2-(ethylamino)benzamide]	0.01 µM	–
NC(=O)c1ccc(-c2nccc3c(-c4cncc(NC(=O)CO)c4)cccc23)cc1NC1CCC(O)CC1 (centres unmarked) [Example 28, 4-(5-(5-(2-Hydroxyacetamide)pyridin-3-yl)isoquinolin-1-yl)-2-(4-hydroxycyclohexylamino)benzamide]	0.5 µM	0.23 µM
CC(C)c1cc(-c2ccc(C(N)=O)c(N)c2)c2cccc(-n3cnc(-c4cccnc4)c3)c2n1 [Example 123, 2-Amino-4-(2-isopropyl-8-(4-(pyridin-3-yl)-1H-imidazol-1-yl)quinolin-4-yl)benzamide]	0.01 µM	0.16 µM
NC(=O)c1ccc(-c2cccc3c(-c4cnc5ccccc5c4)ncnc23)cc1NC1CCC(O)CC1 (centres unmarked) [Comp. Ex. 2, 2-(4-Hydroxycyclohexylamino)-4-(4-(quinolin-3-yl)quinazolin-8-yl)benzamide, reference compound]	> 10 µM	> 100 µM
NC(=O)c1ccc(-c2nc(CN3CCOCC3)cc3c(-c4cnc5ccccc5c4)cccc23)cc1NC1CCC(O)CC1 (centres unmarked) [Example 31, 2-(4-Hydroxycyclohexylamino)-4-(3-(morpholinomethyl)-5-(quinolin-3-yl)isoquinolin-1-yl)benzamide]	0.58 µM	0.8 µM
CC(C)(C)Nc1cc(-c2ccnc3c(-n4cnc(-c5cccnc5)c4)cccc23)ccc1C(N)=O [Example 131, 2-(Tert-butylamino)-4-(8-(4-(pyridin-3-yl)-1H-imidazol-1-yl)quinolin-4-yl)benzamide]	0.14 µM	0.26 µM
NC(=O)c1ccc(-c2nccc3c(-c4cncc(N)c4)cccc23)cc1NC1CCC(O)CC1 (centres unmarked) [Example 2, 4-(5-(5-Aminopyridin-3-yl)isoquinolin-1-yl)-2-(4-hydroxycyclohexylamino)benzamide]	0.15 µM	–
CC(C)Cn1cc(-c2cn(-c3cccc4c(-c5ccc(C(N)=O)c(NC6CCC(O)CC6)c5)nccc34)cn2)cn1 (centres unmarked) [Example 52, 2-(4-Hydroxycyclohexylamino)-4-(5-(4-(1-isobutyl-1H-pyrazol-4-yl)-1H-imidazol-1-yl)isoquinolin-1-yl)benzamide]	0.11 µM	–
NC(=O)c1ccc(-c2nccc3c(-n4cnc(Br)c4)cccc23)cc1NC1CCC(O)CC1 (centres unmarked) [Example 54, 4-(5-(4-Bromo-1H-imidazol-1-yl)isoquinolin-1-yl)-2-(4-hydroxycyclohexylamino)benzamide]	0.48 µM	–
Cn1cc(-c2cn(-c3cccc4c(-c5ccc(C(N)=O)c(NCC6CC6)c5)cc(C(F)(F)F)nc34)cn2)cn1 [Example 65, 2-(Cyclopropylmethylamino)-4-(8-(4-(1-methyl-1H-pyrazol-4-yl)-1H-imidazol-1-yl)-2-(trifluoromethyl)quinolin-4-yl)benzamide]	0.01 µM	–
Cn1cc(-c2cn(-c3cccc4c(-c5ccc(C(N)=O)c(N)c5)cc(C5CC5)nc34)cn2)cn1 [Example 106, 2-Amino-4-(2-cyclopropyl-8-(4-(1-methyl-1H-pyrazol-4-yl)-1H-imidazol-1-yl)quinolin-4-yl)benzamide]	–	0.1 µM
CCNc1cc(-c2nccc3c(-n4cnc(-c5cnn(C)c5)c4)cccc23)ccc1C(N)=O [Example 1, 2-(Ethylamino)-4-(5-(4-(1-methyl-1H-pyrazol-4-yl)-1H-imidazol-1-yl)isoquinolin-1-yl)benzamide]	0.12 µM	–
NCC(=O)OC1CCC(Nc2cc(-c3nccc4c(-c5cnc6ccccc6c5)cccc34)ccc2C(N)=O)CC1 (centres unmarked) [Example 33, 4-(2-Carbamoyl-5-(5-(quinolin-3-yl)isoquinolin-1-yl)phenylamino)cyclohexyl-2-aminoacetate]	0.08 µM	–
Cn1cc(-c2cn(-c3cccc4c(-c5ccc(C(N)=O)c(NC6CCCCCC6)c5)nccc34)cn2)cn1 [Example 63, 2-(Cycloheptylamino)-4-(5-(4-(1-methyl-1H-pyrazol-4-yl)-1H-imidazol-1-yl)isoquinolin-1-yl)benzamide]	0.03 µM	–
